Measurements: the Kinase Knowledgebase extract (Sharma et al. 2016)
Where “and” joins values, the source holds several entries; their conditions need not be identical. Equal values may be shown once.

Target: PIK3CA (human) (UniProt P42336)
Assay: Enzyme Assay

Chain of PIK3CA (human) (P42336 whole entry, looked up): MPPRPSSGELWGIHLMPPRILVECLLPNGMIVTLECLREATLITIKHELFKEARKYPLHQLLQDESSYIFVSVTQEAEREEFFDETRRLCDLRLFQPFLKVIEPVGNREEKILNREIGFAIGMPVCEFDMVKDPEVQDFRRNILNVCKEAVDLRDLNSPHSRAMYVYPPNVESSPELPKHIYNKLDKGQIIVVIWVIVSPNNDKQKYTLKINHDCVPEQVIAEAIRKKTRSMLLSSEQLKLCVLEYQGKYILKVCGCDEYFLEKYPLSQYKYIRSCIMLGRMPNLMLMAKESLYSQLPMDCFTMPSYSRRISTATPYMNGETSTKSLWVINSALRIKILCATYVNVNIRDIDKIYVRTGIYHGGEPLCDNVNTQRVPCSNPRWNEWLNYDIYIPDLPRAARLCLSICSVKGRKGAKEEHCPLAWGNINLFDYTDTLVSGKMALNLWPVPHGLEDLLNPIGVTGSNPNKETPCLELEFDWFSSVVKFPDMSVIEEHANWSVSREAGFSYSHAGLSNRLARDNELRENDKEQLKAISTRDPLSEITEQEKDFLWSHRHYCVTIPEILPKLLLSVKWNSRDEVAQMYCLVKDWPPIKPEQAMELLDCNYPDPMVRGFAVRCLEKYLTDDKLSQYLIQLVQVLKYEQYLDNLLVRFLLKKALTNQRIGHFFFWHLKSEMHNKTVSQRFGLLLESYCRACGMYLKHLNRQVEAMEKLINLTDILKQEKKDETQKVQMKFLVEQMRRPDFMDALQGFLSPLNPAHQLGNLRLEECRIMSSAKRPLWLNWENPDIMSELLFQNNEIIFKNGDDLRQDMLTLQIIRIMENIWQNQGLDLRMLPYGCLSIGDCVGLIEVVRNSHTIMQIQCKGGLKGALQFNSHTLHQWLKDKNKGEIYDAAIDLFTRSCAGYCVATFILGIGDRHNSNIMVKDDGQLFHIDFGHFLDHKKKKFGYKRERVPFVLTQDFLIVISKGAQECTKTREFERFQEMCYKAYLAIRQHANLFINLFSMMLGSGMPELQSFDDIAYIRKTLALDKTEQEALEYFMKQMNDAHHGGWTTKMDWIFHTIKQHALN

IC50 | Structure (SMILES)
209 nM | CCc1ncnc(-c2ccc(C(=O)N3CCN(c4ccncc4)CC3)c(Cl)c2)c1C#Cc1ccc(N)nc1
93.5 nM | CCc1ncnc(-c2ccc(C(=O)N3CCC(OC)CC3)c(Cl)c2)c1C#Cc1ccc(N)nc1
65 nM | CCc1ncnc(-c2ccc(C(=O)N3CCCC(O)C3)c(Cl)c2)c1C#Cc1ccc(N)nc1 (configuration not stated)
374 nM | CCc1ncnc(-c2ccc(C(=O)N3CCC(C4CCN(C)CC4)CC3)c(Cl)c2)c1C#Cc1ccc(N)nc1
228 nM | CCc1ncnc(-c2ccc(C(=O)N3CCN(CC4CC4)CC3)c(Cl)c2)c1C#Cc1ccc(N)nc1
82 nM | CCc1ncnc(-c2ccc(C(=O)N3CCC(OC)CC3)c(F)c2)c1C#Cc1ccc(N)nc1
58 nM | CCc1ncnc(-c2ccc(C(=O)N3CC[C@H](O)C3)c(Cl)c2)c1C#Cc1ccc(N)nc1
65.3 nM | CCc1ncnc(-c2ccc(C(=O)N3CCCOCC3)c(Cl)c2)c1C#Cc1ccc(N)nc1
510 nM | CCc1ncnc(-c2ccc(C(=O)NC3CCCN(C)C3)c(Cl)c2)c1C#Cc1ccc(N)nc1 (configuration not stated)
52.9 nM | CCc1ncnc(-c2ccc(C(=O)N3CCC(O)CC3)c(Cl)c2)c1C#Cc1ccc(N)nc1
115 nM | CCc1ncnc(-c2ccc(C(=O)N3CCN4CCCCC4C3)c(C)c2)c1C#Cc1ccc(N)nc1 (configuration not stated)
67.4 nM | CCc1ncnc(-c2ccc(C(=O)N(C)O)c(Cl)c2)c1C#Cc1ccc(N)nc1
164 nM | CCc1ncnc(-c2ccc(C(=O)N3CCNCC3)c(Cl)c2)c1C#Cc1ccc(N)nc1
31.8 nM | CCc1ncnc(-c2ccc(C(=O)N(C)CCN3CCCC3=O)c(C)c2)c1C#Cc1ccc(N)nc1
90.7 nM | CCc1ncnc(-c2ccc(C(=O)N3CCN(C4CCCC4)CC3)c(C)c2)c1C#Cc1ccc(N)nc1
370 nM | CCc1ncnc(-c2ccc(C(=O)N3CCN(CCN(C)C)CC3)c(Cl)c2)c1C#Cc1ccc(N)nc1
405 nM | CCc1ncnc(-c2ccc(C(=O)N3CCCN(C)CC3)c(Cl)c2)c1C#Cc1ccc(N)nc1
351 nM | CCc1ncnc(-c2ccc(C(=O)NC3CC(N4CCC(O)CC4)C3)c(F)c2)c1C#Cc1ccc(N)nc1 (configuration not stated)
77 nM | CCc1ncnc(-c2ccc(C(=O)N3CCC(C)(O)CC3)c(Cl)c2)c1C#Cc1ccc(N)nc1
101 nM | CCc1ncnc(-c2ccc(C(=O)N3CCC(C(C)(C)O)CC3)c(Cl)c2)c1C#Cc1ccc(N)nc1
110 nM | CCc1ncnc(-c2ccc(C(=O)N3CCC(C)(O)CC3)c(F)c2)c1C#Cc1ccc(N)nc1
36.8 nM | CCc1ncnc(-c2ccc(C(=O)N3CCN(S(=O)(=O)CC)CC3)c(C)c2)c1C#Cc1ccc(N)nc1
232 nM | CCc1ncnc(-c2ccc(C(=O)N3CCC(N(C)C)CC3)c(C)c2)c1C#Cc1ccc(N)nc1
136 nM | CCc1ncnc(-c2ccc(C(=O)N3CCC[C@H]3CO)c(F)c2)c1C#Cc1ccc(N)nc1
65.6 nM | CCc1ncnc(-c2ccc(C(=O)N3CC[C@@H](O)C3)c(Cl)c2)c1C#Cc1ccc(N)nc1
499 nM | CCc1ncnc(-c2ccc(C(=O)N3CCC(C(F)(F)F)CC3)c(Cl)c2)c1C#Cc1ccc(N)nc1

Structure (SMILES) | IC50
CCc1ncnc(-c2ccc(C(=O)N3C[C@H]4C[C@@H]3CN4C)c(F)c2)c1C#Cc1ccc(N)nc1 | 333 nM
CCc1ncnc(-c2ccc(C(=O)N3CC[S+]([O-])CC3)c(Cl)c2)c1C#Cc1ccc(N)nc1 | 63.6 nM and 64 nM
CCc1ncnc(-c2ccc(C(=O)N(C)C)c(F)c2)c1C#Cc1ccc(C)nc1 | 222 nM
Cc1ncnc(-c2ccc(Cl)c(C(=O)N3CCCCC3)c2)c1C#Cc1ccc(N)nc1 | 309 nM
CCc1ncnc(-c2ccc(C(=O)N3CC[S+]([O-])CC3)c(F)c2)c1C#Cc1ccc(N)nc1 | 46 nM
CCc1ncnc(-c2ccc(C(=O)N3CCCC(N(C)C)C3)c(C)c2)c1C#Cc1ccc(N)nc1 (configuration not stated) | 173 nM
CCc1ncnc(-c2ccc(C(=O)N3CC[C@@H](N(C)C)C3)c(OC)c2)c1C#Cc1ccc(N)nc1 | 357 nM
CCc1ncnc(-c2ccc(C(=O)N3CCC(N4CCN(C)CC4)CC3)c(C)c2)c1C#Cc1ccc(N)nc1 | 307 nM
CCc1ncnc(-c2ccc(C(=O)N3CCN(C(C)C)CC3)c(Cl)c2)c1C#Cc1ccc(N)nc1 | 246 nM
CCc1ncnc(-c2ccc(Cl)c(C(=O)N(C)C)c2)c1C#Cc1ccc(N)nc1 | 194 nM
CCc1ncnc(-c2cc(F)c(C(=O)N3CCC4(CC3)CC(=O)CO4)c(F)c2)c1C#Cc1ccc(N)nc1 | 144 nM
CCNc1ccc(C#Cc2c(CC)ncnc2-c2ccc(C(=O)N3CCN(C4CCC4)CC3)c(F)c2)cn1 | 206 nM
CCc1ncnc(-c2ccc(C(=O)N3CCC(N4CCC(C)CC4)C3)c(C)c2)c1C#Cc1ccc(N)nc1 (configuration not stated) | 200 nM
CCc1ncnc(-c2ccc(C(=O)N3CCC(OC)CC3)c(C)c2)c1C#Cc1ccc(N)nc1 | 67.8 nM
CCc1ncnc(-c2ccc(C(=O)N3CC(O)CO3)c(F)c2)c1C#Cc1ccc(N)nc1 (configuration not stated) | 64 nM
CCc1ncnc(-c2ccc(C(=O)N3CCOC(C)(C)C3)c(F)c2)c1C#Cc1ccc(N)nc1 | 108 nM
